# Assay results as given in patent publication US9803002B2, “Anti-wall teichoic antibodies and conjugates” (Genentech, Inc., priority 2013, dated 2017).
# Tests used:
# [1] = test system: Wood46 strain of S. aureus; assay: Macrophage intracellular killing assay with opsonized, washed bacteria; format: cell-based, Staphylococcus aureus; conditions: 10 μg/mL or 0.5 μg/mL
# Procedure: The Wood46 strain of S. aureus was incubated with 10 μg/mL or 0.5 μg/mL of S4497 antibody, Isotype control-AAC containing a cathepsin B cleavable linker, thio-trastuzumab HC A118C-MC-vc-PAB-(dimethyl-pipBOR) AAC-101, thio-S4497 HC WT (v8), LC V205C-MC-vc-PAB-(dimethylpipBOR) AAC-192, Isotype control-AAC containing a staphopain cleavable linker, thio-trastuzumab HC […]-MP-LAFG-PABC-(piperazinoBOR) (“core peptide” disclosed as SEQ ID NO: 128) or thio-S4497 HC v1-MP-LAFG-PABC-(piperazinoBOR) (“core peptide” disclosed as SEQ ID NO: 128) AAC-193 for 1 hour to permit binding of the AAC to bacteria (FIG. 32). To limit non-specific binding of the AAC, the opsonized bacteria were centrifuged, washed once and resuspended in buffer before being fed to murine macrophages. […] Antibody-antibiotic conjugate, thio-54497 LC v8-MP-LAFG-PABC-(piperazinoBOR) (“core peptide” disclosed as SEQ ID NO: 128)AAC-215 is efficacious in vivo in a MRSA infection model: […]
# [2] = clinically achievable serum levels; cited from earlier work
# MRSA [3] = conditions: TSB media; vancomycin 2 and 20 μg/mL, rifampin 0.02 and 0.2 μg/mL
# MRSA (USA300) = assay: Intravenous infection model in CB17.SCID mice reconstituted with human IgG; format: in vivo, mouse
# Procedure: To confirm that the AAC would be effective in the presence of competing human antibodies in vivo, the in vivo infection model was modified to generate mice that express normal levels of human IgG in the serum. […] Four days after infection the bacterial load in the kidneys (FIG. 10C) was assessed.
# Efficacy of the AAC was compared with that of treatment with vancomycin, the current standard of care treatment for MRSA infections. […] CB17.SCID mice were reconstituted with human IgG using a dosing regimen optimized to yield constant levels of at least 10 mg/mL of human IgG in serum.
# (§1) 7 week old female mice were used for all in vivo experiments and infections were carried out by intravenous injection into the tail vein. A/J mice (Jackson Lab) were infected with a dose of 2×10^6 CFU. […] For studies examining the role of competing human IgG (SCID IVIG model), CB17.SCID mice (Charles River Laboratories, Hollister, Calif.) were reconstituted with GammaGard S/D IGIV Immune Globulin (ASD Healthcare, Brooks Ky.) using a dosing regimen optimized to achieve constant serum levels of >10 mg/mL of human IgG. IGIV was administered with an initial intravenous dose of 30 mg per mouse followed by a second dose of 15 mg/mouse by intraperitoneal injection after 6 hours, and subsequent daily dosings of 15 mg per mouse by intraperitoneal injection for 3 consecutive days. […]
# USA300 = assay: Pre-treatment in intravenous infection model in Balb/c mice; format: in vivo, mouse; conditions: antibodies 50 mg/Kg IV 30 minutes prior to infection; vancomycin 110 mg/Kg twice daily IP; day 4
# Procedure: Balb/c mice were given a single dose of vehicle control (PBS) or 50 mg/Kg of antibodies by intravenous injection 30 minutes prior to infection with 2×10^7 CFU of USA300. […] Control mice were given twice daily treatments with 110 mg/Kg of vancomycin by intraperitoneal injection (Vanco). All mice were sacrificed on day 4 post-infection, and the total number of surviving bacteria in kidneys (2 kidneys pooled) was determined by plating.
# as §1, with “days. Mice were infected 4 hours after the first dose of IGIV with 2×10^7 CFU of MRSA diluted in phosphate buffered saline by intravenous injection.” for “days.”
# [4] = test system: MRSA (NRS384 strain of USA300); assay: MIC determinations for extracellular bacteria; conditions: Staphylococcus aureus, read-out: Extracellular MRSA MIC
# Procedure: Dilutions of the antibiotic were made in quadruplicate in 96 well culture dishes. MRSA (NRS384 strain of USA300) was taken from an exponentially growing culture and diluted to 1×10^4 CFU/mL. Bacteria was cultured in the presence of antibiotic for 18-24 hours with shaking at 37° C. and bacterial growth was determined by reading the Optical Density (OD) at 630 nM. The MIC was determined to be the dose of antibiotic that inhibited bacterial growth by >90%.
# [5] = test system: MRSA (NRS384 strain of USA300); assay: MIC determinations for intracellular bacteria inside mouse peritoneal macrophages; format: cell-based, Staphylococcus aureus; conditions: Staphylococcus aureus; MRSA inside mouse peritoneal macrophages; antibiotics added 1 day after infection, survival assessed 24 hours later; read-out: Intracellular MRSA MIC
# MRSA [6] = assay: Transfer of infection from peritoneal cells to MG63 osteoblasts in the presence of vancomycin; format: cell-based, Staphylococcus aureus; conditions: 5 μg/mL of vancomycin
# Procedure: 6-8 week old female A/J mice (JAX™ Mice, Jackson Laboratories) were infected with 1×10^8 CFU of the NRS384 strain of USA300 by peritoneal injection. […] Peritoneal cells were then washed 2× in ice cold HB buffer. […] Free MRSA from the primary infection was stored overnight at 4° C. in Phosphate Buffered Saline Solution as a control for extracellular bacteria that were not subject to neutrophil killing.
# Osteoblasts were plated in 24 well tissue culture plates and cultured to obtain a confluent layer. On the day of the experiment, the osteoblasts were washed once in RPMI (without supplements). MRSA or infected peritoneal cells were diluted in complete RPMI-10 and vancomycin was added at 5 μg/mL immediately prior to infection. Peritoneal cells were added to the osteoblasts at 1×10^6 peritoneal cells/mL. A sample of the cells was lysed with 0.1% triton-x to determine the actual concentration of live intracellular bacteria at the time of infection.
# To generate a pool of intracellular S. aureus, A/J mice were infected with MRSA and infected peritoneal cells were taken 1 day post infection. […] The total number of surviving intracellular bacteria in each well was determined by plating cell lysates on agar plates. […]
Compound,killing of intracellular bacteria [1],Serum Cmax [2] [ng/mL],bacteria remained viable during the first two hours of antibiotic treatment (MRSA [3]) [%],loss in viable bacteria by 5 hours (MRSA [3]) [fold],"efficacy in kidneys (FIG. 11A) (MRSA (USA300); AAC single dose 50 mg/Kg day 1, vancomycin 100 mg/Kg twice daily, day 4)","reduction of bacterial loads (MRSA (USA300); twice-daily 100 mg/Kg, treatment initiated more than 1 day post infection)",effect of pre-treatment on bacterial loads in kidneys (USA300),MIC [4] [µg/mL],MIC [5] [µg/mL],intracellular bacteria in MG63 wells 1 day post infection (MRSA [6]; similar dose of free (extracellular) MRSA) [intracellular bacteria],intracellular bacteria in MG63 wells 1 day after infection (MRSA [6]; wells infected with 3×10^4 intracellular bacteria (peritoneal cells))
thio-trastuzumab HC A1118C-MP-LAFG-PABC-(piperazinoBOR),no activity,,,,,,,,,,
CN[C@H](CC(C)C)C(=O)N[C@H]1C(=O)N[C@@H](CC(N)=O)C(=O)N[C@H]2C(=O)N[C@H]3C(=O)N[C@H](C(=O)N[C@H](C(=O)O)c4cc(O)cc(O)c4-c4cc3ccc4O)[C@H](O)c3ccc(c(Cl)c3)Oc3cc2cc(c3O[C@@H]2O[C@H](CO)[C@@H](O)[C@H](O)[C@H]2O[C@H]2C[C@](C)(N)[C@H](O)[C@H](C)O2)Oc2ccc(cc2Cl)[C@H]1O [Vancomycin],,10000 to 40000,90,100,failed to clear the infection,about 50 fold,cleared the infection in all of the mice tested,1,> 100,375,"8,750 intracellular bacteria"
